Source: publication PMC9774939, “Optimization of Pyrazole Compounds as Antibiotic Adjuvants Active against Colistin- and Carbapenem-Resistant Acinetobacter baumannii” (Antibiotics, 2022)
Where two headings read alike, the source gives them in different places.

What was measured:
K. pneumoniae ATCC 13833 = assay: Chequerboard analysis with colistin; format: cell-based, Klebsiella pneumoniae; details: combination with colistin; synergy when ≤0.5
Method: (§1) The chequerboard analysis is a two-dimensional array in which individual microplate wells contain a unique combination of the concentrations of the tested compound and colistin. Tested concentrations of the compound ranged from 64 to 0.06 μg/mL along the x-axis, whereas polymyxin E1 concentrations ranged from 2 to 0.03 μg/mL (or 32–0.5 μg/mL when polymyxin E1-resistant clinical isolates were used) and varied along the y-axis. Determining the fractional inhibitory concentration (FIC) of both compounds and computing the average FIC index allowed us to determine whether a synergistic, additive, or antagonistic activity between the tested compounds could be observed. A synergistic activity occurred when the average FIC index was equal to or less than 0.5 [21, 27].

Escherichia coli CCUG^T [1] = test system: Escherichia coli CCUG^T; parameters: method as in PMID 32435403; details: parent compounds, cited from earlier work; for MAC Eco: in the presence of 0.5 × MIC colistin; for MIC/MAC Ratio Eco: minimal ratio
[2] = test system: eight reference strains, Gram-positive and Gram-negative; parameters: method as in PMID 32435403; details: parent compound; cited from earlier work
A. baumannii N50 = assay: Chequerboard analysis with colistin; format: cell-based, Acinetobacter baumannii; details: combination with colistin; MDR, colistin-resistant isolate
Source text: (§2) Carbapenem-resistant, colistin-resistant, and XDR clinical isolates were kindly provided by Prof. Gian Maria Rossolini (University of Florence, Italy). Klebsiella pneumoniae SI-004Bo is a KPC-producing, pandrug-resistant isolate (KKBO-4 [17]) selected in vivo during colistin therapy (colistin resistance mechanism, IS-mediated insertional inactivation of mgrB). Acinetobacter baumannii N50 is an OXA-24-producing clinical isolate resistant to all β-lactams, aminoglycosides, and fluoroquinolones.
as §1

[3] = test system: Klebsiella pneumoniae ATCC 13833; parameters: method as in PMID 32435403; details: parent compounds, cited from earlier work; for MAC Kpn: in the presence of 0.5 × MIC colistin; for MIC/MAC Ratio Kpn: minimal ratio
A. baumannii ATCC 17978 = assay: Chequerboard analysis with colistin; format: cell-based, Acinetobacter baumannii; details: combination with colistin; synergy when ≤0.5
Method: as §1

K. pneumoniae SI-004Bo = assay: Chequerboard analysis with colistin; format: cell-based, Klebsiella pneumoniae; details: combination with colistin; pandrug-resistant, colistin-resistant isolate
Source text: as §2, §1

[4] = test system: Acinetobacter baumannii ATCC 17978; parameters: method as in PMID 32435403; details: parent compounds, cited from earlier work; for MAC Aba: in the presence of 0.5 × MIC colistin; for MIC/MAC Ratio Aba: minimal ratio
E. coli CCUG^T = assay: Chequerboard analysis with colistin; format: cell-based, Escherichia coli; details: combination with colistin; synergy when ≤0.5
Method: as §1

Hemolytic activity = format: cell-based; details: 0.025–10 μg of compound
Method: The hemolytic activity of compounds 1, 2, 8, 9, 45, and 49 (0.025–10 μg) was investigated using the method described by Bechlars et al.. Triton X-100 was used as the hemolysis control and DMSO as the negative control.

[5] = test system: Klebsiella pneumoniae ATCC 13833; assay: MAC determination in the presence of subinhibitory colistin; format: cell-based; parameters: key to MAC Kpn: -: No synergistic activity; details: for MAC Kpn: in the presence of 0.5 × MIC colistin; for MIC/MAC Ratio Kpn: minimal ratio of MIC of compound alone to MAC with 0.5 × MIC colistin
Method: (§3) The minimum inhibitory concentration (MIC) and minimum bactericidal concentration (MBC) of the compounds were determined in triplicate using Mueller–Hinton broth and a bacterial inoculum of 5 × 10^5 CFU/mL, as recommended by the CLSI [26]. The minimum antibacterial concentration (MAC) of the compounds was determined in the presence of a fixed and subinhibitory concentration of colistin (as mentioned above).

[6] = test system: Acinetobacter baumannii N50; assay: MBC determination in the presence of colistin; format: cell-based; details: in the presence of 2 µg/mL of colistin
Method: as §3

[7] = test system: Acinetobacter baumannii ATCC 17978; assay: MAC determination in the presence of subinhibitory colistin; format: cell-based; details: for MAC Aba: in the presence of 0.5 × MIC colistin; for MIC/MAC Ratio Aba: minimal ratio of MIC of compound alone to MAC with 0.5 × MIC colistin
Method: as §3

Escherichia coli CCUG^T [8] = assay: as above; format: cell-based; details: for MAC Eco: in the presence of 0.5 × MIC colistin; for MIC/MAC Ratio Eco: minimal ratio of MIC of compound alone to MAC with 0.5 × MIC colistin
Method: as §3

[9] = test system: Acinetobacter baumannii N50; assay: Time-kill curve analysis; format: cell-based
Method: The time-dependent bacterial killing of colistin, compound 9, or a combination thereof was investigated using established methods. Briefly, a culture medium containing a starting inoculum of 5.0 × 10^6 CFU/mL of Acinetobacter baumannii N50 clinical isolate was incubated aerobically at 35 °C under orbital agitation (200 rpm) in Mueller–Hinton broth, in the absence (growth control) or presence of either 2 μg/mL of colistin (a concentration equivalent to the susceptibility breakpoint), 8 µg/mL of compound 9, or both. The bacterial count (expressed in CFU/mL) in the control and antibiotic-containing media was determined every hour for up to 6 h of incubation via serial 10-fold dilution and direct plating of 0.1 mL of the sample on the Mueller–Hinton Agar medium (without antibiotic), which was incubated for 24 h at 35 °C.

[10] = Membrane integrity assay (LDH release); format: cell-based; details: human, HeLa cells; tested alone, 24 h exposure; read-out: IC50 cytotoxicity (membrane-damaging activity, LDH release)
Method: The potential cytotoxic activity of compounds was evaluated using the commercially available integrity assay (CytoTox 96® non-radioactive cytotoxicity assay, Promega). The compounds were tested for their ability to induce the lysis of HeLa cells by measuring the release of lactate dehydrogenase (LDH) after incubating the HeLa cell cultures (20,000 cells/well) for 24 h (37 °C, 5% CO2) in DMEM (Dulbecco’s Modified Eagle Medium) supplemented with 10% fetal bovine serum, 4.5 mg/mL glucose, and 2 mM L-glutamine in the absence and presence of varying concentrations of the compounds (up to 256 µg/mL). Further controls included samples containing the medium only or in which cell lysis was induced by the addition of 9% Triton X-100 (maximum LDH release control). The percentage of cytotoxicity was computed as 100 × (sample LDH release)/(maximum LDH release). The variation of the percentage of cytotoxicity allowed us to compute an IC50 value (compound concentration inducing 50% cytotoxicity).

HeLa cells = assay: Cell viability and proliferation assay (RealTime-Glo MT); format: cell-based; details: 16 µg/mL of compound, up to 72 h
Method: The cytotoxicity of the compounds was also evaluated by measuring the number of viable cells in the culture with respect to the control culture (cells treated with DMSO only) using the RealTime-Glo™ MT Cell Viability Assay in the presence of varying concentrations of the compound. The assay is a nonlytic homogeneous, bioluminescent method that can be used to measure cell viability/proliferation in real time using NanoLuc® luciferase and a cell-permeant prosubstrate (MT Cell Viability Substrate). […]

O=C(NCc1ccc2c(c1)OCO2)c1cnn(-c2ccccc2)c1-n1cccc1 [Compound 1]
Average FIC Index (K. pneumoniae ATCC 13833): 0.5 | MAC Eco (Escherichia coli CCUG^T [1]): 64 µg/mL | MIC/MAC Ratio Eco (Escherichia coli CCUG^T [1]): 8 | direct antibacterial activity [2]: no direct antibacterial activity was observed | Average FIC Index (A. baumannii N50): 0.5 | MAC Kpn [3]: 64 µg/mL | MIC/MAC Ratio Kpn [3]: 8 | Average FIC Index (A. baumannii ATCC 17978): 0.38 | Average FIC Index (K. pneumoniae SI-004Bo): 1 | MAC Aba [4]: 32 µg/mL | MIC/MAC Ratio Aba [4]: 16 | Average FIC Index (E. coli CCUG^T): 0.5 | hemolytic activity (Hemolytic activity): no hemolytic activity could be observed

Cc1c(C(=O)Nc2ccc(S(C)(=N)=O)cc2)nn(-c2ccc(Cl)cc2)c1-n1cccc1 (stereo not drawn) [Compound 49, 1-(4-Chlorophenyl)-4-methyl-N-[4-(S-methylsulfonimidoyl)phenyl]-5-(1H-pyrrol-1-yl)-1H-pyrazole-3-carboxamide]
Average FIC Index (K. pneumoniae ATCC 13833): 0.39 | Average FIC Index (A. baumannii N50): 0.31 | MAC Kpn [5]: 4 µg/mL | MIC/MAC Ratio Kpn [5]: 128 | Average FIC Index (A. baumannii ATCC 17978): 0.38 | Average FIC Index (K. pneumoniae SI-004Bo): 1 | melting point: 207 to 210 °C | MBC [6]: > 64 µg/mL | MAC Aba [7]: 8 µg/mL | MIC/MAC Ratio Aba [7]: 64 | Average FIC Index (E. coli CCUG^T): 0.32 | hemolytic activity (Hemolytic activity): no hemolytic activity could be observed | MAC Eco (Escherichia coli CCUG^T [8]): 8 µg/mL | MIC/MAC Ratio Eco (Escherichia coli CCUG^T [8]): 64

Colistin [reference compound]
bactericidal effect (time-kill) ([9]; colistin alone at 2 µg/mL): not expectedly able to show any bactericidal effect

Cc1c(C(=O)Nc2ccc(O)cc2)nn(-c2ccc(Cl)cc2)c1-n1cccc1 [Compound 45, 1-(4-Chlorophenyl)-N-(4-hydroxyphenyl)-4-methyl-5-(1H-pyrrol-1-yl)-1H-pyrazole-3-carboxamide]
Average FIC Index (K. pneumoniae ATCC 13833): 0.31 | Average FIC Index (A. baumannii N50): 0.26 | MAC Kpn [5]: 4 µg/mL | MIC/MAC Ratio Kpn [5]: 128 | Average FIC Index (A. baumannii ATCC 17978): 0.31 | Average FIC Index (K. pneumoniae SI-004Bo): 1 | melting point: 226 to 228 °C | MBC [6]: > 64 µg/mL | MAC Aba [7]: 8 µg/mL | MIC/MAC Ratio Aba [7]: 64 | Average FIC Index (E. coli CCUG^T): 0.31 | hemolytic activity (Hemolytic activity): no hemolytic activity could be observed | MAC Eco (Escherichia coli CCUG^T [8]): 4 µg/mL | MIC/MAC Ratio Eco (Escherichia coli CCUG^T [8]): 128

O=C(NC12CC3CC(CC(C3)C1)C2)c1cnn(-c2ccccc2)c1-n1cccc1 [Compound 8, N-(Adamantan-1-yl)-1-phenyl-5-(1H-pyrrol-1-yl)-1H-pyrazole-4-carboxamide]
Average FIC Index (K. pneumoniae ATCC 13833): 0.5 | Average FIC Index (A. baumannii N50): 0.24 | MAC Kpn [5]: - ^a | Average FIC Index (A. baumannii ATCC 17978): 0.31 | Average FIC Index (K. pneumoniae SI-004Bo): 1 | melting point: 167 to 169 °C | MBC [6]: > 64 µg/mL | MAC Aba [7]: 4 µg/mL | MIC/MAC Ratio Aba [7]: 128 | Average FIC Index (E. coli CCUG^T): 0.38 | hemolytic activity (Hemolytic activity): no hemolytic activity could be observed | IC50 at 24 h [10]: > 256 µg/mL | MAC Eco (Escherichia coli CCUG^T [8]): 32 µg/mL | MIC/MAC Ratio Eco (Escherichia coli CCUG^T [8]): 16

CC(C)(C)OC(=O)[C@H](Cc1ccccc1)NC(=O)c1cnn(-c2ccccc2)c1-n1cccc1 [Compound 9, tert-Butyl (S)-3-Phenyl-2-[[[1-phenyl-5-(1H-pyrrol-1-yl)-1H-pyrazol-4-yl]carbonyl]amino]propanoate]
Average FIC Index (K. pneumoniae ATCC 13833): 0.32 | Average FIC Index (A. baumannii N50): 0.23 | MAC Kpn [5]: 8 µg/mL | MIC/MAC Ratio Kpn [5]: 64 | Average FIC Index (A. baumannii ATCC 17978): 0.34 | Average FIC Index (K. pneumoniae SI-004Bo): 1 | MBC [6]: > 64 µg/mL | MAC Aba [7]: 4 µg/mL | MIC/MAC Ratio Aba [7]: 128 | Average FIC Index (E. coli CCUG^T): 0.33 | hemolytic activity (Hemolytic activity): no hemolytic activity could be observed | proliferation of HeLa cells (HeLa cells): not significantly altered | reduction of bacterial population (time-kill) ([9]; 2 µg/mL of colistin and 8 µg/mL of 9, within 5 h): 4 log10 | antibacterial activity alone (time-kill) ([9]; 8 µg/mL of 9 alone): does not exhibit antibacterial activity | MAC Eco (Escherichia coli CCUG^T [8]): 8 µg/mL | MIC/MAC Ratio Eco (Escherichia coli CCUG^T [8]): 64

Cc1c(C(=O)N(C)CCN(C)C)nn(-c2ccc(Cl)cc2)c1-n1cccc1 [Compound 2]
Average FIC Index (K. pneumoniae ATCC 13833): 0.5 | MAC Eco (Escherichia coli CCUG^T [1]): 64 µg/mL | MIC/MAC Ratio Eco (Escherichia coli CCUG^T [1]): 8 | Average FIC Index (A. baumannii N50): 0.4 | MAC Kpn [3]: 32 µg/mL | MIC/MAC Ratio Kpn [3]: 16 | Average FIC Index (A. baumannii ATCC 17978): 0.39 | Average FIC Index (K. pneumoniae SI-004Bo): 1 | MAC Aba [4]: 16 µg/mL | MIC/MAC Ratio Aba [4]: 32 | Average FIC Index (E. coli CCUG^T): 0.31 | hemolytic activity (Hemolytic activity): no hemolytic activity could be observed
